Assay results reported in patent publication US9751851B2, “Molecules and compositions that inhibit gram negative bacteria and their uses” (THE TRUSTEES OF PRINCETON UNIVERSITY, priority 2013, dated 2017).

These compounds were tested on wild-type P. aeruginosa PA14 (assay: microbe, parasite or virus in culture). Details: Pseudomonas aeruginosa, PA14, 17 h, read-out: Efficacy (%), Table 1; reduction of pyocyanin vs WT P. aeruginosa PA14: 0% = WT level, 100% = background medium, negative = agonist.
Assay type: cell-based
Description: Methods. The oxidized form of pyocyanin imparts a green color to P. aeruginosa cultures, making the production of pyocyanin convenient to monitor by UV/Vis absorbance. Overnight P. aeruginosa cultures were subcultured into 5 mL fresh medium at 1:1000 dilution. Synthetic compounds were assayed at 100 μM for end point assays and at concentrations ranging from 200 nM to 200 μM for titrations following 17 hr of aerobic growth with shaking at 37° C. Cells were separated from culture fluids via centrifugation at 13,000 rpm for 15 min. Culture fluids were passed through 0.22 μm syringe driven filters (Millipore). Cell-free culture fluids were analyzed for pyocyanin using wavelength scans on a Beckman Coulter DU-800 spectrophotometer from 200 nm to 800 nm 695 nm was chosen for graphical representation. Titration data were fit with a variable-slope sigmoidal dose-response curve using GraphPad Prism to determine the IC50 values.
The compounds of the first library were assayed in wild-type (WT) P. aeruginosa PA14. Pyocyanin was used as a read-out for quorum sensing activity based on its absorbance at 695 nm. The efficacy of the compounds at reducing pyocyanin levels was calculated with respect to WT levels of pyocyanin, where WT levels of pyocyanin would lead to a 0% efficacy, and an absorbance equal to the background medium would lead to a 100% efficacy. Agonists that increase pyocyanin production have negative efficacy values.

First: CCCCCCCCCC(=O)CC(=O)Nc1ccccn1 [S1, 3OC12-2-aminopyridine]
Second: CCCCCCCCCC(=O)CC(=O)Nc1ccncn1 [S3, 3OC12-4-aminopyrimidine]
The inhibition at 100 µM of the first is lower: 44 ± 13% for the first, 64 ± 0.8% for the second.

Compared with `CCCCCCCCCC(=O)CC(=O)Nc1cccnc1` [S2, 3OC12-3-aminopyridine], `CCCCCCCCCCCC(=O)Nc1cccnc1` [S7, C12-3-aminopyridine] is higher in inhibition at 100 µM: 10 ± 9% for the first, 34 ± 3% for the second.

Compared with `CCCCCCCCCC(=O)CC(=O)Nc1cnccn1` [S4, 3OC12-2-aminopyrazine], `CCCCCCCCCCCC(=O)Nc1cnccn1` [S10, C12-2-aminopyrazine] is lower in inhibition at 100 µM: 21 ± 13% for the first, -38 ± 3% for the second.

Compared with `CCCCCCCCCC(=O)CC(=O)Nc1ncccn1` [S5, 3OC12-2-aminopyrimidine], `CCCCCCCCCCCC(=O)Nc1ncccn1` [S11, C12-2-aminopyrimidine] is higher in inhibition at 100 µM: -0.51 ± 4% for the first, 23 ± 3% for the second.

`CCCCCCCCCCCC(=O)Nc1ccccn1` [S6, C12-2-aminopyridine] and `CCCCCCCCCCCC(=O)Nc1ccncn1` [S9, C12-4-aminopyrimidine] are the same in inhibition at 100 µM: 55 ± 3% for the first, 55 ± 8% for the second.

`CCCCCCCCCCCC(=O)Nc1ccncc1` [S8, C12-4-aminopyridine] gave an inhibition at 100 µM of 28 ± 11%.

Same assay, conditions: Pseudomonas aeruginosa, PA14, 17 h, read-out: Efficacy (%), Table 2; reduction of pyocyanin vs WT P. aeruginosa PA14: 0% = WT level, 100% = background medium, negative = agonist

Compared with `CCCCCCCCCCCC(=O)Nc1ccnc(C)c1` [S12, C12-4-amino-2-methylpyridine], `CCCCCCCCCCCC(=O)Nc1ccnc(Br)c1` [S17, C12-4-amino-2-bromopyridine] is higher in inhibition at 100 µM: -19 ± 3% for the first, 34 ± 5% for the second.

Compared with `CCCCCCCCCCCC(=O)Nc1cc(C)nc2ccccc12` [S13, C12-4-amino-2-methylquinoline], `CCCCCCCCCCCC(=O)Nc1ccc2c(c1)c1ccccc1n2CC` [S30, C12-3-amino-1-ethylcarbazole] is higher in inhibition at 100 µM: -24 ± 2% for the first, -1 ± 3% for the second.

Compared with `CCCCCCCCCCCC(=O)Nc1ccncc1C(F)(F)F` [S14, C12-4-amino-3-trifluoromethylpyridine], `CCCCCCCCCCCC(=O)Nc1ccnc(C(F)(F)F)c1` [S20, C12-4-amino-2-trifluoromethylpyridine] is higher in inhibition at 100 µM: -17 ± 2% for the first, 27 ± 3% for the second.

Going from `CCCCCCCCCCCC(=O)Nc1ccnc(OC)c1` [S15, C12-4-amino-2-methoxypyridine] to `CCCCCCCCCC(=O)CC(=O)Nc1ccnc(OC)c1` [S16, 3OC12-4-amino-2-methoxypyridine], the inhibition at 100 µM rises from -5.1 ± 1% to 24 ± 1%.

Compared with `CCCCCCCCCC(=O)CC(=O)Nc1ccnc(F)c1` [S18, 3OC12-4-amino-2-fluoropyridine], `CCCCCCCCCC(=O)CC(=O)Nc1ccc2c(c1)c1ccccc1n2CC` [S31, 3OC12-3-amino-1-ethylcarbazole] is higher in inhibition at 100 µM: -8.5 ± 3% for the first, 9.3 ± 4% for the second.

`CCCCCCCCCCCC(=O)Nc1c(F)c(F)nc(F)c1F` [S19, C12-4-amino-2,3,5,6-tetrafluoropyridine] and `CCCCCCCCCCCC(=O)Nc1ccc2[nH]ccc2c1` [S25, C12-5-aminoindole] are within error of each other in inhibition at 100 µM: -12 ± 3% for the first, -11 ± 3% for the second.

`CCCCCCCCCCCCNC(=O)c1ccncc1` [S21, C12-isonicotinic amide] and `CCCCCCCCCCCC(=O)NCc1ccncc1` [S22, C12-4-(aminomethyl)pyridine] are within error of each other in inhibition at 100 µM: 13 ± 3% for the first, 7.7 ± 5% for the second.

Going from `CCCCCCCCCCCC(=O)OCc1ccncc1` [S23, C12-4-(hydroxymethyl)pyridine] to `CCCCCCCCCCCC(=O)N1CCN(c2ccncc2)CC1` [S24, C12-4-(piperazine)pyridine], the inhibition at 100 µM falls from -15 ± 4% to -42 ± 2%.

`CCCCCCOC(=O)C1COc2ccccc21` (stereo not shown) [S28, C6-dihydrobenzofuran ester] and `CCCCCCCCCCCC(=O)O/N=C1\COc2ccccc21` [S29, C12-dihydrobenzofuran acylhydroxylamine] are within error of each other in inhibition at 100 µM: 1.5 ± 8% for the first, 12 ± 3% for the second.

Going from `CCCCCCCCCCCCNC(=O)c1cc2ccccc2n1C` [S32, C12-2-amido-1-methylindole] to `CCCCCCCCCCCCNC(=O)c1c[nH]c2ccccc12` [S33, C12-3-amidoindole], the inhibition at 100 µM rises from -9.2 ± 4% to 4.4 ± 3%.

`CCCCCCCCCCCCNC(=O)Cc1c[nH]c2ccccc12` [S34, C12-3-(methylamido)indole] and `CCCCCCCCCCCC(=O)Nc1ccc2oc3c(c2c1)CCCC3` [S35, C12-2-amino-tetrahydrodibenzofuran] are within error of each other in inhibition at 100 µM: 0.6 ± 4% for the first, 6.1 ± 4% for the second.

Same assay, conditions: Pseudomonas aeruginosa, PA14, 17 h, read-out: Efficacy (%), Table 3; reduction of pyocyanin vs WT P. aeruginosa PA14: 0% = WT level, 100% = background medium

Compared with `O=C(COc1cccc(Br)c1)Nc1ccnc(F)c1` [S41, 4-amino-2-fluoropyridine-C6-3-bromophenoxyhybrid], `O=C(COc1cccc(Br)c1)Nc1ccnc(Cl)c1` [S55, 4-amino-2-chloropyridine-C6-3-bromophenoxyhybrid] is higher in inhibition at 100 µM: 31 ± 6% for the first, 89% for the second.

Compared with `COc1cc(NC(=O)CC(=O)COc2cccc(Br)c2)ccn1` [S46, 4-amino-2-methoxypyridine-3OC6-3-bromophenoxyhybrid], `COc1cc(NC(=O)COc2cccc(Br)c2)ncn1` [S52, 4-amino-6-methoxypyrimidine-C6-3-bromophenoxyhybrid] is higher in inhibition at 100 µM: 40% for the first, 41% for the second.

`O=C(COc1cccc(Br)c1)Nc1ccncn1` [S51, 4-aminopyrimidine-C6-3-bromophenoxyhybrid] and `COc1nccc(NC(=O)COc2cccc(Br)c2)n1` [S53, 4-amino-2-methoxypyrimidine-C6-3-bromophenoxyhybrid] are within error of each other in inhibition at 100 µM: 27 ± 7% for the first, 16 ± 5% for the second.

Compared with `COc1cc(NC(=O)COc2cccc(Br)c2)nc(OC)n1` [S54, 4-amino-2,6-dimethoxypyrimidine-C6-3-bromophenoxyhybrid], `O=C(COc1cccc(Br)c1)Nc1cccc(C(F)(F)F)c1` [S59, 1-amino-3-trifluoromethyl-C6-3-bromophenoxyhybrid] is higher in inhibition at 100 µM: 15 ± 7% for the first, 62% for the second.

Same assay, conditions: Table 3; reduction of pyocyanin vs WT P. aeruginosa PA14: 0% = WT level, 100% = background medium

First: O=C(COc1cccc(Br)c1)Nc1ccnc(F)c1 [S40, 4-amino-2-fluoropyridine-C4-3-bromophenoxyhybrid]
Second: O=C(COc1cccc(Br)c1)Nc1ccnc(Cl)c1 [S55, 4-amino-2-chloropyridine-C6-3-bromophenoxyhybrid]
The “Efficacy (%)” value of the first is lower: 32 ± 4% for the first, 89 ± 5% for the second.

`COc1cc(NC(=O)CC(=O)COc2cccc(Br)c2)ccn1` [S46, 4-amino-2-methoxypyridine-3OC6-3-bromophenoxyhybrid] and `COc1cc(NC(=O)COc2cccc(Br)c2)ncn1` [S52, 4-amino-6-methoxypyrimidine-C6-3-bromophenoxyhybrid] are within error of each other in “Efficacy (%)” value: 40 ± 6% for the first, 41 ± 9% for the second.

With `O=C(COc1cccc(Br)c1)Nc1cccc(C(F)(F)F)c1` [S59, 1-amino-3-trifluoromethyl-C6-3-bromophenoxyhybrid] the “Efficacy (%)” value was 62 ± 6%.

Same assay, conditions: Table 3; reduction of pyocyanin vs WT P. aeruginosa PA14: 0% = WT level, 100% = background medium; listed as Table 3 entry 6

`COc1cc(NC(=O)COc2cccc(Br)c2)ccn1` [S44, 4-amino-2-methoxypyridine-C5-3-bromophenoxyhybrid] was tested, and the “Efficacy (%)” value was 81%.

Same assay, conditions: Table 3; reduction of pyocyanin vs WT P. aeruginosa PA14: 0% = WT level, 100% = background medium; listed as Table 3 entry 10

In the case of `COc1cc(NC(=O)COc2cccc(Br)c2)ccn1` [S50, 4-amino-2-methoxypyridine-C8-3-bromophenoxyhybrid], the “Efficacy (%)” value is reported as 60%.

Same assay, conditions: Table 3; reduction of pyocyanin vs WT P. aeruginosa PA14: 0% = WT level, 100% = background medium; listed as Table 3 entry 17

`O=C(COc1cccc(Br)c1)Nc1ccnc(C(F)(F)F)c1` [S57, 4-amino-2-trifluoromethylpyridine-C5-3-bromophenoxyhybrid] was tested, and the “Efficacy (%)” value was 95%.

Same assay, conditions: Table 3; reduction of pyocyanin vs WT P. aeruginosa PA14: 0% = WT level, 100% = background medium; listed as drawing 59

In the case of `O=C(COc1cccc(Br)c1)Nc1ccncc1` [S37, 4-aminopyridine-C4-3-bromophenoxyhybrid], the “Efficacy (%)” value is reported as 21 ± 5%.

Same assay, conditions: Table 3; reduction of pyocyanin vs WT P. aeruginosa PA14: 0% = WT level, 100% = background medium; listed as drawing 60

`O=C(COc1cccc(Br)c1)Nc1ccncc1` [S39, 4-aminopyridine-C6-3-bromophenoxyhybrid] was tested, and the “Efficacy (%)” value was 53 ± 1%.

Same assay, conditions: Table 3; reduction of pyocyanin vs WT P. aeruginosa PA14: 0% = WT level, 100% = background medium; listed as drawing 63

With `COc1cc(NC(=O)COc2cccc(Br)c2)ccn1` [S42, 4-amino-2-methoxypyridine-C4-3-bromophenoxyhybrid] the “Efficacy (%)” value was 20 ± 1%.

Same assay, conditions: Table 3; reduction of pyocyanin vs WT P. aeruginosa PA14: 0% = WT level, 100% = background medium; listed as drawing 64

`COc1cc(NC(=O)COc2cccc(Br)c2)ccn1` [S44, 4-amino-2-methoxypyridine-C5-3-bromophenoxyhybrid] was tested, and the “Efficacy (%)” value was 81 ± 6%.

Same assay, conditions: Table 3; reduction of pyocyanin vs WT P. aeruginosa PA14: 0% = WT level, 100% = background medium; listed as drawing 68

In the case of `COc1cc(NC(=O)COc2cccc(Br)c2)ccn1` [S50, 4-amino-2-methoxypyridine-C8-3-bromophenoxyhybrid], the “Efficacy (%)” value is reported as 60 ± 2%.

Same assay, conditions: Table 3; reduction of pyocyanin vs WT P. aeruginosa PA14: 0% = WT level, 100% = background medium; listed as drawing 74

With `O=C(COc1cccc(Br)c1)Nc1ccnc(C(F)(F)F)c1` [S56, 4-amino-2-trifluoromethylpyridine-C4-3-bromophenoxyhybrid] the “Efficacy (%)” value was 43 ± 8%.

Same assay, conditions: Table 3; reduction of pyocyanin vs WT P. aeruginosa PA14: 0% = WT level, 100% = background medium; listed as drawing 75

With `O=C(COc1cccc(Br)c1)Nc1ccnc(C(F)(F)F)c1` [S57, 4-amino-2-trifluoromethylpyridine-C5-3-bromophenoxyhybrid] the “Efficacy (%)” value was 95 ± 5%.

Same assay, conditions: Table 3; reduction of pyocyanin vs WT P. aeruginosa PA14: 0% = WT level, 100% = background medium; listed as drawing 77

With `O=C(COc1cccc(Br)c1)Nc1ccnc(C(F)(F)F)c1` [S58, 4-amino-2-trifluoromethylpyridine-C7-3-bromophenoxyhybrid] the “Efficacy (%)” value was 23 ± 7%.

Same assay, conditions: WT P. aeruginosa PA14, 17 hr growth, titration; read-out: IC50 for inhibition of pyocyanin production

Going from `O=C(CCCOc1cccc(Br)c1)N[C@@H]1CCSC1=O` [(R)-mBTL] to `O=C(CCCOc1cccc(Br)c1)N[C@H]1CCSC1=O` [(S)-mBTL], the IC50 falls from 100 µM to 4 µM (25-fold). The second is the more potent here.

Same assay, conditions: wild-type P. aeruginosa PA14; end point assays at 100 μM

`O=C(CCCCOc1cccc(Br)c1)NC1CCSC1=O` (stereo not shown) [5C-mBTL] was tested, and the “inhibition of pyocyanin production (in words)” value was “most effective inhibitor of pyocyanin production”.
With `O=C(CCc1ccc(Br)cc1)N[C@H]1CCOC1=O` [B7, reference compound] the “inhibition of pyocyanin production (in words)” value was “limited or no inhibition”.
